Consider ten compounds from ChEMBL document CHEMBL1152961, “Synthesis and biological evaluation of novel carbon-11 labeled pyridyl ethers: candidate ligands for in vivo imaging of alpha4beta2 nicotinic acetylcholine receptors (alpha4beta2-nAChRs) in the brain with positron emission tomography” (Bioorg Med Chem, 2009).

pKi: −log10 of the molar value.

A short description of data set [1]: Octanol-water partition coefficient, log D at pH 7.4 by shake flask method. The class given is physicochemical.
The target in data set [2] is Neuronal acetylcholine receptor subunit alpha-2 (Rattus norvegicus, UniProt P12389+P12390). Put plainly: Displacement of [3H]epibatidine from rat alpha2beta2 nicotinic receptor expressed in human HEK293 cells by liquid scintillation counting. The class given is cell-based.
Data set [3] deals with Neuronal acetylcholine receptor; alpha2/beta4 (Rattus norvegicus, UniProt P12389+P12392). The experiment in a line: Displacement of [3H]epibatidine from rat alpha2beta4 nicotinic receptor expressed in human HEK293 cells by liquid scintillation counting. It is filed as cell-based.
Data set [4] addresses Neuronal acetylcholine receptor; alpha3/beta2 (Rattus norvegicus, UniProt P04757+P12390). Put plainly: Displacement of [3H]epibatidine from rat alpha3beta2 nicotinic receptor expressed in human HEK293 cells by liquid scintillation counting. It is filed as cell-based.
Data set [5] concerns the target Neuronal acetylcholine receptor; alpha3/beta4 (Rattus norvegicus, UniProt P04757+P12392). The experiment in a line: Displacement of [3H]epibatidine from rat alpha3beta4 nicotinic receptor expressed in human HEK293 cells by liquid scintillation counting. It is filed as cell-based.
The target of data set [6] is T1, Neuronal acetylcholine receptor; alpha4/beta2 (Rattus norvegicus, UniProt P09483+P12390). The experiment in a line: Displacement of [3H]epibatidine from rat alpha4beta2 nicotinic receptor expressed in human HEK293 cells by liquid scintillation counting. It is filed as cell-based.
Data set [7] has as its target Neuronal acetylcholine receptor; alpha4/beta2 (Rattus norvegicus) (UniProt P09483+P12390). Put plainly: Ratio of compound Ki to epibatidine Ki for rat alpha4beta2 nicotinic receptor expressed in human HEK293 cells. It is filed as cell-based.
Data set [8] addresses Neuronal acetylcholine receptor; alpha4/beta4 (Rattus norvegicus, UniProt P09483+P12392). The experiment in a line: Displacement of [3H]epibatidine from rat alpha4beta4 nicotinic receptor expressed in human HEK293 cells by liquid scintillation counting. It is filed as cell-based.
The species entered for another data set is Rattus norvegicus. Put plainly: Selectivity ratio of Ki for rat alpha3beta4 nicotinic receptor to Ki for rat alpha4beta2 nicotinic receptor.
Data set [9] in a line: Ratio of drug uptake in thalamus to cerebellum of CD1 mouse at 0.07 mCi, iv after 45 mins. It is filed as ADME, organism-based. As to conditions: in vivo, 0.75 h.
Data set [10] in a line: Drug uptake in baboon brain thalamus assessed as binding potential at 21 mCi by bolus injection. It is filed as ADME, organism-based. The note with it: papio anubis, in vivo, iv.
Data set [11] in a line: Drug uptake in baboon brain thalamus assessed as binding potential at 17.5 mCi by bolus injection. The note with it: papio anubis, in vivo, iv. The class given is ADME, organism-based.
A short description of data set [12]: Drug uptake in baboon brain thalamus assessed as binding potential at 31 mCi by bolus injection. The class given is ADME, organism-based. As to conditions: papio anubis, in vivo, iv.
Data set [13] deals with T1, Neuronal acetylcholine receptor; alpha4/beta2. Put plainly: Displacement of [125I]5-A-85380 from alpha4beta2 nicotinic receptor in rat brain. It is filed as tissue-based.

Chain of Neuronal acetylcholine receptor; alpha3/beta4 (P04757 whole entry): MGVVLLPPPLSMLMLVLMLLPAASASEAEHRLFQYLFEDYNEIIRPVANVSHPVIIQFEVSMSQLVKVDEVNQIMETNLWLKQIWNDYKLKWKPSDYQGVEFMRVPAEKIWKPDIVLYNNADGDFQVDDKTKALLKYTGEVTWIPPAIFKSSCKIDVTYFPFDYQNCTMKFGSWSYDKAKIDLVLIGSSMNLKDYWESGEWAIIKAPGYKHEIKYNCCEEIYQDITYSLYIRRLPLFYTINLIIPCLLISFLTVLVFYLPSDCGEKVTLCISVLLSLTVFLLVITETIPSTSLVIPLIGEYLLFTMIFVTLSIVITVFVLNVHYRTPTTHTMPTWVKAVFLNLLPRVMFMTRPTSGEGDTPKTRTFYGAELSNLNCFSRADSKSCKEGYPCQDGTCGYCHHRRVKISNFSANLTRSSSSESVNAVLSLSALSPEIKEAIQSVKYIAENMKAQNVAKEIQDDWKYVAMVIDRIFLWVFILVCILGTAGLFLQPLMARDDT
Chain of Neuronal acetylcholine receptor; alpha3/beta4 (P12392 whole entry): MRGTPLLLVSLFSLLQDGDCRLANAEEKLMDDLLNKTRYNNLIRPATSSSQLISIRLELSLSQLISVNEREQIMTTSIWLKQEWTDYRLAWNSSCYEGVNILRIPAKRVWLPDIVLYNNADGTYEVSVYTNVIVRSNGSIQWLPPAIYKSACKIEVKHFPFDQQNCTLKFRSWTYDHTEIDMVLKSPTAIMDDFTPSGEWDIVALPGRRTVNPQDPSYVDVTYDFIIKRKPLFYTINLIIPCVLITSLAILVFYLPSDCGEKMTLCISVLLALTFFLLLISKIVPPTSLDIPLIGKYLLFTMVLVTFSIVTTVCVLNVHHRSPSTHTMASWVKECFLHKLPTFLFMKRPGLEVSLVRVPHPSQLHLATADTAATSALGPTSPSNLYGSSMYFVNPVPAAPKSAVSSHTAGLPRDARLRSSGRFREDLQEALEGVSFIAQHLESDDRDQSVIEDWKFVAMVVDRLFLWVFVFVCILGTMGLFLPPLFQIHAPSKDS
Chain of Neuronal acetylcholine receptor; alpha3/beta2 (P04757 whole entry): as the sequence (P04757 whole entry) above
Chain of Neuronal acetylcholine receptor; alpha3/beta2 (P12390 whole entry): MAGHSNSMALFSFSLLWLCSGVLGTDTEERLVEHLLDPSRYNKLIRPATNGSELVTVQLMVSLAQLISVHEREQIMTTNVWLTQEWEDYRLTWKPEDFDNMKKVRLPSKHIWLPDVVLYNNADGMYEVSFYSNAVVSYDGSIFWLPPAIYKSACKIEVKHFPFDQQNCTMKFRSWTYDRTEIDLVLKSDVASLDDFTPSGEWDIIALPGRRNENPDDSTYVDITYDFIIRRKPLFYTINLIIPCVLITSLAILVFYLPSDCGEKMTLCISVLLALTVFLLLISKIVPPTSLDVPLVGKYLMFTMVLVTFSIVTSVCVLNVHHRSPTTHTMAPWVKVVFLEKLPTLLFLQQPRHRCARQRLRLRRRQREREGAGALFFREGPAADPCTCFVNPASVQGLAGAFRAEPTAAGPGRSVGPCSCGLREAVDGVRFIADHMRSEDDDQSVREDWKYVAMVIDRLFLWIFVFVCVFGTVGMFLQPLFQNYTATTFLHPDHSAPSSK
Chain of Neuronal acetylcholine receptor; alpha4/beta4 (P09483 whole entry): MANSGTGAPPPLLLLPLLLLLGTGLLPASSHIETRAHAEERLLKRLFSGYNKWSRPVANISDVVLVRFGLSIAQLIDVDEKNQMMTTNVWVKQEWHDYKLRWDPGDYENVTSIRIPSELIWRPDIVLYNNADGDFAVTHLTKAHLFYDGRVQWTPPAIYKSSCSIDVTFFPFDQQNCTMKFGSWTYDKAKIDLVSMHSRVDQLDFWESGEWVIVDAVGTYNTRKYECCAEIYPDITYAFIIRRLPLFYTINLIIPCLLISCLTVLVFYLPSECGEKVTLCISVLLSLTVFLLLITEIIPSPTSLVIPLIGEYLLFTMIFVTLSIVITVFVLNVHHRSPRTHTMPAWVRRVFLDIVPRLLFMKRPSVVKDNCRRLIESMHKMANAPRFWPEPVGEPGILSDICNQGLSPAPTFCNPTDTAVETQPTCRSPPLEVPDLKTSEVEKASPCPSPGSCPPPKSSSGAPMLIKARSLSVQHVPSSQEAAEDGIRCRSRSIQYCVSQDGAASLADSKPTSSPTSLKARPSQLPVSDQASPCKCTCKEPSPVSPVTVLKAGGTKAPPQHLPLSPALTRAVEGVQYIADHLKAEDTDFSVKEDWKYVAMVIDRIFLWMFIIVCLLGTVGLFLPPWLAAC
Chain of Neuronal acetylcholine receptor; alpha4/beta4 (P12392 whole entry): as the sequence (P12392 whole entry) above
T1 sequence (P09483 whole entry): as the sequence (P09483 whole entry) above
T1 sequence (P12390 whole entry): as the sequence (P12390 whole entry) above
Chain of Neuronal acetylcholine receptor; alpha2/beta4 (P12389 whole entry): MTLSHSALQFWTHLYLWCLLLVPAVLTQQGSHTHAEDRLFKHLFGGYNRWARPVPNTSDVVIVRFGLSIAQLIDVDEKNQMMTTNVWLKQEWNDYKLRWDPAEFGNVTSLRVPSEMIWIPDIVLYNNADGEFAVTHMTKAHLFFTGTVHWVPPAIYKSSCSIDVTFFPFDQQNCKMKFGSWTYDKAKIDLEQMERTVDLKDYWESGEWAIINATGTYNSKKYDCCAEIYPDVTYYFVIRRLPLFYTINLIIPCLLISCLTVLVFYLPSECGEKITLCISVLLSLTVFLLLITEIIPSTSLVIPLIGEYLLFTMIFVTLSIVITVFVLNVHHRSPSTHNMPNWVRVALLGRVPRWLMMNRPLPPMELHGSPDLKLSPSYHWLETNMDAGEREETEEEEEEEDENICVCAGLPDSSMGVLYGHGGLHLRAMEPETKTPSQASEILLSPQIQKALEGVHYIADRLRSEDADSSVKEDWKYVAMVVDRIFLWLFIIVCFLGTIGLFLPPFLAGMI
Chain of Neuronal acetylcholine receptor; alpha2/beta4 (P12392 whole entry): as the sequence (P12392 whole entry) above
Chain of Neuronal acetylcholine receptor subunit alpha-2 (P12389 whole entry, one chain of several): as the sequence (P12389 whole entry) above

In data set [1], `Fc1cc(COc2cc(OC[C@@H]3CCCN3)cnc2Cl)ccn1` showed a logD of 1.4. Moreover, the negative logarithm of the Ki (pKi) in data set [2] was 10.46; in data set [3], 8.09; in data set [4], 9.60; in data set [5], 7.37; in [6], 9.89; in data set [8], 8.96. The Ratio Ki was 2.1 in [7] and 331 in the data set listed under Rattus norvegicus.

In the case of `[11CH3]N1CCC[C@H]1COc1cnc(Cl)c(OCc2ccc(Cl)nc2)c1`, the Ratio in data set [9] was 3.8. Also, the Drug uptake in data set [10], in data set [11] and in data set [12] was 0.7 each time.

For the compound `[11CH3]N1CCC[C@H]1COc1cnc(Cl)c(/C=C/c2ccncc2)c1`, in data set [1] (read-out: logD), the logD was found to be 1.6. In data set [13], the negative-log Ki (pKi) was 10.55.

In the case of `CN1CCC[C@H]1COc1cnc(Cl)c(/C=C/c2ccncc2)c1`, the Ratio Ki in [7] came to 2.8.

Regarding `CN1CCC[C@H]1COc1cnc(Cl)c(OCc2ccc(Cl)nc2)c1`, the pKi in data set [2] was 10.51; in data set [3] it was 7.85; in data set [4] it was 9.59; in data set [5], 6.49; in data set [6], 10.26; in data set [8], 8.18. Also, the Ratio Ki in data set [7] stood at 0.9; in the data set listed under Rattus norvegicus, 5820.

In data set [1], `CN1CCC[C@H]1COc1cnc(Cl)c(OCc2ccnc(F)c2)c1` yielded a logD of 1.8. Besides, the pKi is 10.66 in [2]; 7.96 in data set [3]; 9.48 in [4]; 7.05 in data set [5]; 10.21 in data set [6]; 8.80 in data set [8]. The Ratio Ki in [7] stood at 1; in the data set filed under Rattus norvegicus, 1450.

With `CN1CCC[C@@H]1COc1cnc(Cl)c(OCc2ccc(Cl)nc2)c1`, the logD in [1] is listed as 2.2. For the same compound, the pKi is 8.82 in data set [2]; 7.66 in data set [3]; 9.07 in data set [4]; 6.46 in data set [5]; 8.96 in data set [6]; 8.12 in [8]. For the same compound, the Ratio Ki in data set [7] amounted to 18; in the data set filed under Rattus norvegicus it was 318.

On to `Fc1ncccc1OC[C@@H]1CCN1`, for which the pKi in data set [2] was 8.85; in [3], 6.74; in [4], 8.52; in data set [5] it was 5.43.

Consider `[11CH3]N1CCC[C@H]1COc1cnc(Cl)c(-c2ccnc(F)c2)c1`, for which the Drug uptake in [10], in data set [11] and in [12] was 0.7 throughout.

`CN1CCC[C@H]1COc1cnc(Cl)c(-c2ccnc(F)c2)c1` gave a logD in data set [1] of 1.6. For the same compound, the pKi was 10.30 in data set [2]; 7.57 in data set [3]; 9.15 in data set [4]; 6.23 in data set [5]; 10.21 in data set [6]; 7.80 in data set [8]. The Ratio Ki in [7] was found to be 1; in the data set filed under Rattus norvegicus, 9520.
